Patent US8372847B2, “Pyrazinone modulator of corticotropin-releasing factor receptor activity” (Bristol-Myers Squibb Company, priority 2008, dated 2013)

Tests used:
[1] = tested on: Male Sprague-Dawley rats; details: previous CRF1 antagonists, literature (McElroy 2002; Lelas 2004); cited from earlier work
[2] = tested on: Male Sprague-Dawley rats; assay: Situational anxiety behavioral model in rats (latency to exit dark cylinder into open field); assay type: in vivo, rat; details: for lowest effective dose (decrease of exit latency): PO, 60 minutes before testing
Text: Situational Anxiety Behavioral Studies in Rats. (S)-4-(1-Cyclopropyl-2-methoxyethyl)-6-(6-(difluoromethoxy)-2,5-dimethylpyridin-3-ylamino)-5-oxo-4,5-dihydropyrazine-2-carbonitrile has been evaluated in a situational anxiety model to evaluate its anxiolytic potential. In this model, rats are placed in a small, darkened chamber located in an unfamiliar open field. Vehicle-treated rats spend most of the time within the chamber, consistent with a heightened state of anxiety [Takahashi L. K. et al, Behav. Neurosci. 103: 648-654, (1989)]. This model is sensitive to anxiolytics, including benzodiazepines such as chlordiazepoxide [Yang X-M. et al, J. Pharmacol. Exp. Ther. 255: 1064-1070, (1990)]. In addition, previous CRF1 antagonists, such as DMP696 and DMP904 [McElroy J. F. et al., Psychopharmacology 165: 86-92, (2002); Lelas S. et al., J. Pharmacol. Exp. Ther. 309: 293-302, (2004)] were effective this model. The effects of (S)-4-(1-cyclopropyl-2-methoxyethyl)-6-(6-(difluoromethoxy)-2,5-dimethylpyridin-3-ylamino)-5-oxo-4,5-dihydropyrazine-2-carbonitrile were compared with those of anxiolytic standards chlordiazepoxide (Librium®) and diazepam (Valium®) in this model. Male Sprague-Dawley rats weighing 180-300 g were purchased from Charles River Laboratories (Wilmington, Mass.). The rats were housed individually in suspended wire cages in colony rooms maintained at a constant temperature (21±2° C.) and humidity (50±10%). The rooms were illuminated 12 hours per day. The rats had ad libitum access to food and water throughout the studies. Behavioral studies were conducted between 0600 and 1300 h. Animals were maintained in accordance with the guidelines of the Animal Care and Use Committee of the Bristol-Myers Squibb Company, the “Guide for Care and Use of Laboratory Animals” (Institute of Animal Laboratory Resources, 1996), and the guidelines published in the National Institutes of Health Guide for the Care and Use of Laboratory Animals. Research protocols were approved by the Bristol-Myers Squibb Company Animal Care and Use Committee. All compounds were prepared in 0.25% methylcellulose and administered PO. Chlordiazepoxide, diazepam, and desipramine were purchased from Sigma Chemical Company. (S)-4-(1-Cyclopropyl-2-methoxyethyl)-6-(6-(difluoromethoxy)-2,5-dimethylpyridin-3-ylamino)-5-oxo-4,5-dihydropyrazine-2-carbonitrile was dosed in the volume of 2 ml/kg. All standards were dosed in the volume of 2 ml/kg. For all tests, data were analyzed by analysis of variance, followed by Dunnett's t-tests for individual comparisons. The significance value was set at 0.05. The data are presented in the text and figures as mean±standard error of the mean (SEM). Male Sprague-Dawley rats were habituated to handling and dosing the day before testing. On the day of testing, all compounds were administered PO by gavage 60 minutes before behavioral testing. To initiate testing, each animal was placed in a small galvanized steel cylinder (14 cm length, 10 cm diameter), which was placed lengthwise against one wall of an illuminated open field (106 cm length×92 cm width×50 cm height). The open field was illuminated by a 60-W incandescent bulb and illumination was titrated by a powerstat transformer to a 30-lux reading at the entrance to the cylinder. Behavior was assessed for 15 minutes by a trained observer unaware of treatment assignment. The latency of the animal to exit the cylinder, defined by the placement of all four paws into the open field, and explore the open field was recorded (in seconds). […] The Plexiglas chamber and the cylinder were cleaned with 1.0% glacial acetic acid between animals to prevent olfactory cues from influencing the behavior of subsequently tested animals. Following behavioral testing, animals were sacrificed and plasma samples and brains were taken for analysis of plasma exposure and central receptor occupancy.

[3] = 3.0 mg/kg PO, benzodiazepine standard studies
[4] = 10 mg/kg PO, benzodiazepine standard studies

SMILES: CCC(CC)Nc1cc(C)nc2c(-c3ccc(OC)cc3C)c(C)nn12 [DMP904]
- effectiveness in the situational anxiety model [1]: effective

SMILES: CNC1=Nc2ccc(Cl)cc2C(c2ccccc2)=[N+]([O-])C1 [chlordiazepoxide]
- decrease in exit latency relative to vehicle-treated controls [2, 3]: 58%
- decrease in exit latency relative to vehicle-treated controls [2, 4]: 97%
- decrease in exit latency relative to vehicle-treated controls ([2]; 30 mg/kg PO, benzodiazepine standard study): 72%
- decrease in exit latency relative to vehicle-treated controls ([2]; 100 mg/kg PO, benzodiazepine standard study): 54%
- lowest effective dose (decrease of exit latency) [2]: 3.0 mg/kg

SMILES: CN1C(=O)CN=C(c2ccccc2)c2cc(Cl)ccc21 [diazepam]
- decrease in exit latency relative to vehicle-treated controls ([2]; 1.0 mg/kg PO, benzodiazepine standard study): 62%
- decrease in exit latency relative to vehicle-treated controls [2, 3]: 69%
- decrease in exit latency relative to vehicle-treated controls [2, 4]: 91%
- lowest effective dose (decrease of exit latency) [2]: 1.0 mg/kg
